Test results from US20030215787A1, “Modulators of the CLC-7 chloride channel and methods for their identification and use in the treatment and prevention of osteoporosis and related disease states” (priority 2002, published 2003).

B1: RANKL: recombinant soluble RANKL: extracellular domain of human RANKL (amino acids 158-317) fused to glutathione-S-transferase, expressed in E. coli (protein, UniProt O14788 158-317, looked up, fragment)
chain: SKLEAQPFAHLTINATDIPSGSHKVSLSSWYHDRGWAKISNMTFSNGKLIVNQDGFYYLYANICFRHHETSGDLATEYLQLMVYVTKTSIKIPSSHTLMKGGSTKYWSGNSEFHFYSINVGGFFKLRSGEEISIEVSNPSLLDPDQDATYFGAFKVRDID
modifications: extracellular domain GST fusion
notes: recombinant soluble RANKL: extracellular domain of human RANKL (amino acids 158-317) fused to glutathione-S-transferase, expressed in E. coli

Assays:
[1] = system: mature osteoclasts; details: known non-specific chloride channel inhibitor; cited from earlier work
[2] = system: Raw264.7 cells; assay: RNAi transfection and bone resorption (bovine cortical bone particles, C-telopeptide Crosslaps ELISA); format: cell-based, mouse; details: 100 ng/ml RANKL, day 7, FIG. 2
Procedure: For RNAi transfection and bone resorption, the experiment was performed as follows: 1×10^4 Raw264.7 cells were seeded per 48 well and were cultured for 4 days with 100 ng/ml RANKL. The RNAi reagent was obtained from Sequitur. On day 4, the cells were transfected with 150 nM RNAi and 2 μg/ml lipofectamine overnight. The next day, the medium was replaced and 10 mg of powered bovine cortical bone particles (PelFreeze, Inc) were distributed into each well (James, I. E., et al. (1999) J. Bone Miner. Res., 14:1562-9). The particles were resuspended in […] of tissue culture media and incubated at 4° C. for 24 h storage. 200 μl bone particles were added to the precultured cells. The bone particles were allowed to settle for 10 min, and the cells were cultured for another 48 h at which time 100 μl of the supernatant was removed for the C-telopeptide Crosslaps™ ELISA analysis according to the manufacturer's instructions (Nordic Bioscience/Denmark). The absorbance was measured at 450 nm (Molecular Devices, Sunnyvale, Calif.).

Molecule	acidification of mature osteoclasts [1]	increase of bone resorption [2] [fold]
O=C(O)c1cccnc1Nc1cccc(C(F)(F)F)c1 [niflumic acid]	inhibits the acidification	
B1		2.2
